For 38 compounds, AC50 results are on record in US20250171438A1 (Agios Pharmaceuticals, Inc., priority 2022, published 2025).

The structures appear in SMILES notation. A value given as a limit tells only on which side of the number the result lay.

One experiment deals with T1, human PAH with the R408W mutation (Homo sapiens, UniProt P00439, R408W).
T1 construct: expressed in transfected cells
T1 sequence (P00439 1-452 R408W): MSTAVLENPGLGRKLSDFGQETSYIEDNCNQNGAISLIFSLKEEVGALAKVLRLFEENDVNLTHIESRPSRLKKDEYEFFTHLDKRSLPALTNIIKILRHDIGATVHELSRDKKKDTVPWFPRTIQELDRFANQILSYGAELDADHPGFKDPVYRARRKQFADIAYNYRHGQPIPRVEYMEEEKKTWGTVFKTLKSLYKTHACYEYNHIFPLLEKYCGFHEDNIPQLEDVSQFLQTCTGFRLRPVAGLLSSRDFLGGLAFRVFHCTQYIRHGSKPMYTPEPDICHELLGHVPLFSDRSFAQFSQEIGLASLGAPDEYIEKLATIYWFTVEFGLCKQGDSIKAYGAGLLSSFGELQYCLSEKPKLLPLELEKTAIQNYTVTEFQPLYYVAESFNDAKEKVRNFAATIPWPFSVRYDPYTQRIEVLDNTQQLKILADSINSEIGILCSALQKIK
Description: Cell Based Phenylalanine Flux Assay. Conditions: A375 cells expressing human R408W PAH; 24 hrs compound incubation; 13C-Tyrosine by LC-MS; average where tested multiple times; read-out: AC50.
Turning to `O=C(c1ccon1)N1CCc2[nH]cnc2[C@H]1c1nc2ccc(Br)cc2[nH]1` [Example 981, (S)-(4-(6-bromo-1H-benzo[d]imidazol-2-yl)-6,7-dihydro-1H-imidazo[4,5-c]pyridin-5(4H)-yl)(isoxazol-3-yl)methanone], the AC50 was less than 500 nM. Same read-out and setting: to `O=C(c1cnn2ccccc12)N1CCc2[nH]cnc2[C@@H]1c1nc2cccc(Cl)c2[nH]1` [Example 985, (R)-(4-(7-chloro-1H-benzo[d]imidazol-2-yl)-6,7-dihydro-1H-imidazo[4,5-c]pyridin-5(4H)-yl)(pyrazolo[1,5-a]pyridin-3-yl)methanone] belongs more than 5000 nM. The same measure, in the same setting: the value for `O=C(c1ccnn1C(F)F)N1CCc2[nH]cnc2[C@H]1c1nc2ccccc2s1` [Example 1817] was less than 500 nM; that for `O=C(c1oc(-c2ccccn2)nc1C(F)F)N1CCc2[nH]cnc2[C@@H]1c1nc2c(F)cccc2s1` [Example 1797, (R)-(4-(difluoromethyl)-2-(pyridin-2-yl)oxazol-5-yl)(4-(4-fluorobenzo[d]thiazol-2-yl)-6,7-dihydro-1H-imidazo[4,5-c]pyridin-5(4H)-yl)methanone] was less than 500 nM.

In the case of `Cc1cccc2sc([C@@H]3c4nc[nH]c4CCN3C(=O)c3cnn(C)c3C(F)F)nc12` [Example 2029, (S)-(5-(difluoromethyl)-1-methyl-1H-pyrazol-4-yl)(4-(4-methylbenzo[d]thiazol-2-yl)-6,7-dihydro-1H-imidazo[4,5-c]pyridin-5(4H)-yl)methanone], the half-maximal activity concentration (AC50) was 500 to 1000 nM.

With `[2H][C@]1(c2nc3ccccc3s2)c2nc[nH]c2CCN1C(=O)c1ocnc1C` [Example 2160, [(4R)-4-(1,3-benzothiazol-2-yl)-4-deuterio-6,7-dihydro-1H-imidazo[4,5-c]pyridin-5-yl]-(4-methyloxazol-5-yl)methanone], the AC50 is more than 5000 nM. On to `O=C(c1cnn(CC(F)(F)F)c1C(F)F)N1CCc2[nH]cnc2[C@@H]1c1nc2c(F)cccc2s1` [Example 1976, (R)-(5-(difluoromethyl)-1-(2,2,2-trifluoroethyl)-1H-pyrazol-4-yl)(4-(4-fluorobenzo[d]thiazol-2-yl)-6,7-dihydro-1H-imidazo[4,5-c]pyridin-5(4H)-yl)methanone], for which the AC50 is 500 to 1000 nM. Still for that read-out and setting: to `O=C(CCc1nccs1)N1CCc2[nH]cnc2[C@@H]1c1ncc(-c2ccccc2)s1` [Example 2142, (R)-1-(4-(5-phenylthiazol-2-yl)-6,7-dihydro-1H-imidazo[4,5-c]pyridin-5(4H)-yl)-3-(thiazol-2-yl)propan-1-one] belongs more than 5000 nM; to `O=C(CCC1CC1)N1CCc2[nH]cnc2[C@H]1c1nc2ccc(F)cc2[nH]1` [Example 962, (S)-3-cyclopropyl-1-(4-(6-fluoro-1H-benzo[d]imidazol-2-yl)-6,7-dihydro-1H-imidazo[4,5-c]pyridin-5(4H)-yl)propan-1-one], less than 500 nM; to `[2H][C@]1(c2nc3ccccc3s2)c2nc[nH]c2CCN1C(=O)c1cnc(-c2cnn(C)c2)s1` [Example 2158, [(4R)-4-(1,3-benzothiazol-2-yl)-4-deuterio-6,7-dihydro-1H-imidazo[4,5-c]pyridin-5-yl]-[2-(1-methylpyrazol-4-yl)thiazol-5-yl]methanone], more than 5000 nM. In the case of `Cc1nc(C(C)(C)C#N)oc1C(=O)N1CCc2[nH]cnc2[C@@H]1c1nc2c(F)cccc2s1` [Example 1997, (R)-2-(5-(4-(4-fluorobenzo[d]thiazol-2-yl)-4,5,6,7-tetrahydro-1H-imidazo[4,5-c]pyridine-5-carbonyl)-4-methyloxazol-2-yl)-2-methylpropanenitrile], the AC50 is 1000 to 5000 nM.

Turning to `Cn1cc(-c2nc(C(F)F)c(C(=O)N3CCc4[nH]cnc4[C@H]3c3nc4ccccc4s3)o2)cn1` [Example 1799], the concentration at half-maximal activity (AC50) was less than 500 nM.

Turning to `CC(C)(O)c1nc(CF)c(C(=O)N2CCc3[nH]cnc3[C@H]2c2nc3c(F)cccc3s2)o1` [Example 2065, (S)-(4-(4-fluorobenzo[d]thiazol-2-yl)-6,7-dihydro-1H-imidazo[4,5-c]pyridin-5(4H)-yl)(4-(fluoromethyl)-2-(2-hydroxypropan-2-yl)oxazol-5-yl)methanone], the AC50 is less than 500 nM. On the same count and under the same terms, the value for `O=C(CC1CC1)N1CCc2[nH]cnc2[C@H]1c1nc2ccc(Br)cc2[nH]1` [Example 945, (S)-1-(4-(6-bromo-1H-benzo[d]imidazol-2-yl)-6,7-dihydro-1H-imidazo[4,5-c]pyridin-5(4H)-yl)-2-cyclopropylethanone] was less than 500 nM; that for `O=C(c1oc(COC(F)(F)F)nc1C(F)F)N1CCc2[nH]cnc2[C@@H]1c1nc2ccccc2s1` [Example 1832, (R)-(4-(benzo[d]thiazol-2-yl)-6,7-dihydro-1H-imidazo[4,5-c]pyridin-5(4H)-yl)(4-(difluoromethyl)-2-((trifluoromethoxy)methyl)oxazol-5-yl)methanone] was 1000 to 5000 nM; that for `O=C(C1CC1(F)F)N1CCc2[nH]cnc2[C@@H]1c1nc2ccccc2s1` (single isomer, unassigned) [Example 1286] was 1000 to 5000 nM. Same read-out and setting: to `O=C(c1ocnc1C(F)(F)F)N1CCc2[nH]cnc2[C@H]1c1nc2c(F)cccc2s1` [Example 1493, (S)-(4-(4-fluorobenzo[d]thiazol-2-yl)-6,7-dihydro-1H-imidazo[4,5-c]pyridin-5(4H)-yl)(4-(trifluoromethyl)oxazol-5-yl)methanone] belongs less than 500 nM; to `CC1(C(=O)N2CCc3[nH]cnc3[C@H]2c2nc3ccccc3s2)CC1(F)F` (single isomer, unassigned) [Example 1292], 1000 to 5000 nM; to `O=C(c1cnn(CC2CC2)c1Cl)N1CCc2[nH]cnc2[C@@H]1c1nc2c(F)cccc2s1` [Example 1972, (R)-(5-chloro-1-(cyclopropylmethyl)-1H-pyrazol-4-yl)(4-(4-fluorobenzo[d]thiazol-2-yl)-6,7-dihydro-1H-imidazo[4,5-c]pyridin-5(4H)-yl)methanone], 1000 to 5000 nM. Still for that read-out and setting: to `Cn1nncc1C(=O)N1CCc2[nH]cnc2[C@@H]1c1nc2c(F)cccc2s1` [Example 1726, (R)-(4-(4-fluorobenzo[d]thiazol-2-yl)-6,7-dihydro-1H-imidazo[4,5-c]pyridin-5(4H)-yl)(1-methyl-1H-1,2,3-triazol-5-yl)methanone] belongs 1000 to 5000 nM; to `O=C(c1nnc(-c2ccc(F)cn2)o1)N1CCc2[nH]cnc2[C@@H]1c1nc2c(F)cccc2s1` [Example 1712, (R)-(4-(4-fluorobenzo[d]thiazol-2-yl)-6,7-dihydro-1H-imidazo[4,5-c]pyridin-5(4H)-yl)(5-(5-fluoropyridin-2-yl)-1,3,4-oxadiazol-2-yl)methanone], less than 500 nM; to `N#Cc1nc(N2CCOCC2)oc1C(=O)N1CCc2[nH]cnc2[C@@H]1c1nc2ccccc2s1` [Example 1706, (R)-5-(4-(benzo[d]thiazol-2-yl)-4,5,6,7-tetrahydro-1H-imidazo[4,5-c]pyridine-5-carbonyl)-2-morpholinooxazole-4-carbonitrile], more than 5000 nM. With `O=C(c1ocnc1C1CC1)N1CCc2[nH]cnc2[C@H]1c1nc2ccccc2s1` [Example 1327], the AC50 is less than 500 nM. In the case of `C[C@@H]1CN(C(=O)c2ocnc2C2CC2)[C@H](c2nc3c(F)cccc3s2)c2nc[nH]c21` [Example 1551, (4-cyclopropyloxazol-5-yl)((4S,7R)-4-(4-fluorobenzo[d]thiazol-2-yl)-7-methyl-6,7-dihydro-1H-imidazo[4,5-c]pyridin-5(4H)-yl)methanone], the AC50 lay within 500 to 1000 nM.

Still in this experiment, the particulars now being: A375 cells expressing human R408W PAH; 24 hrs with compound; 13C-Tyrosine by LC-MS; average where tested multiple times; read-out: AC50.
As for `O=C(c1cnn2cc(Br)ccc12)N1CCc2[nH]cnc2C1c1nc2ccc(Cl)cc2[nH]1` (centres unmarked), the AC50 was more than 5000 nM. Same read-out and setting: to `O=C(c1ncco1)N1CCc2[nH]cnc2[C@H]1c1nc2ccccc2[nH]1` [(S)-(4-(1H-benzo[d]imidazol-2-yl)-1,4,6,7-tetrahydro-5H-imidazo[4,5-c]pyridin-5-yl)(oxazol-2-yl)methanone] belongs 1000 to 5000 nM; to `Cc1nc(-c2ccccn2)oc1C(=O)N1CC(C)c2[nH]cnc2C1c1nc2ccccc2s1` (centres unmarked), more than 5000 nM. Same read-out and setting: to `O=C(Cc1nccs1)N1CCc2[nH]cnc2C1c1nc2ccc(F)cc2s1` (centres unmarked) belongs 1000 to 5000 nM; to `O=C(c1nccs1)N1CCc2[nH]cnc2C1c1nc2cccc(F)c2[nH]1` (centres unmarked), more than 5000 nM. For the compound `O=C(CCc1nccs1)N1CCc2[nH]cnc2C1c1nc2ccc(Br)cc2s1` (centres unmarked), the AC50 was 1000 to 5000 nM. On to `O=C(Cc1nccs1)N1CCc2[nH]cnc2C1c1nc2c(F)cccc2s1` (centres unmarked), for which the AC50 is more than 5000 nM. On to `Cc1nnc(CCC(=O)N2CCc3[nH]cnc3C2c2nc3cccc(F)c3s2)s1` (centres unmarked), for which the AC50 was in the range of 1000 to 5000 nM. Still for that read-out and setting: the value for `O=C(c1cnn2ccccc12)N1CCc2[nH]cnc2C1c1nc2ccc(F)cc2[nH]1` (centres unmarked) was more than 5000 nM; that for `O=C(c1cnn(CC(F)(F)F)c1)N1CCc2[nH]cnc2C1c1nc2ccccc2s1` (centres unmarked) was 1000 to 5000 nM; that for `O=C(c1nc(Cl)cs1)N1CCc2[nH]cnc2C1c1nc2c(F)cccc2s1` (centres unmarked) was 1000 to 5000 nM.

With `O=C(CC1CC1)N1CCc2[nH]cnc2C1c1nc2c(F)cccc2s1` (centres unmarked), the concentration at half-maximal activity (AC50) was more than 5000 nM. Same read-out and setting: the value for `Cn1nc(CO)cc1C(=O)N1CCc2[nH]cnc2C1c1nc2c(F)cccc2s1` (centres unmarked) was 1000 to 5000 nM; that for `CNCc1ccc2c(C(=O)N3CCc4[nH]cnc4C3c3nc4ccccc4s3)cnn2c1` (centres unmarked) was more than 5000 nM.

As usually defined, the AC50 is the midpoint of the concentration-response curve, whichever way the signal moves.
